By Kd is commonly meant the constant that tells how readily two partners part at equilibrium.

Among the data in ChEMBL document CHEMBL3991601, “The target landscape of clinical kinase drugs” (Science, 2017) are Kd values, retold here.

Activity calls are given as the source filed them. Rule as the data show it, for most assays here: actives have a measured Kd and inactives only a lower limit. A value given as a limit tells only on which side of the number the result lay.

Targets include Ephrin type-A receptor 7 (Homo sapiens, UniProt Q15375); Aurora kinase B (Homo sapiens, UniProt Q96GD4); Deoxycytidine kinase (Homo sapiens, UniProt P27707).
The target of experiment [1] is Protein-tyrosine kinase 2-beta (Homo sapiens, UniProt Q14289).
Experiment [2] addresses Tyrosine-protein kinase SYK (Homo sapiens, UniProt P43405).
Experiment [3] has as its target Mitotic checkpoint serine/threonine-protein kinase BUB1 (Homo sapiens, UniProt O43683).
In experiment [4] the target is T1, Cyclin-G-associated kinase (Homo sapiens, UniProt O14976).
T1 sequence (O14976 whole entry): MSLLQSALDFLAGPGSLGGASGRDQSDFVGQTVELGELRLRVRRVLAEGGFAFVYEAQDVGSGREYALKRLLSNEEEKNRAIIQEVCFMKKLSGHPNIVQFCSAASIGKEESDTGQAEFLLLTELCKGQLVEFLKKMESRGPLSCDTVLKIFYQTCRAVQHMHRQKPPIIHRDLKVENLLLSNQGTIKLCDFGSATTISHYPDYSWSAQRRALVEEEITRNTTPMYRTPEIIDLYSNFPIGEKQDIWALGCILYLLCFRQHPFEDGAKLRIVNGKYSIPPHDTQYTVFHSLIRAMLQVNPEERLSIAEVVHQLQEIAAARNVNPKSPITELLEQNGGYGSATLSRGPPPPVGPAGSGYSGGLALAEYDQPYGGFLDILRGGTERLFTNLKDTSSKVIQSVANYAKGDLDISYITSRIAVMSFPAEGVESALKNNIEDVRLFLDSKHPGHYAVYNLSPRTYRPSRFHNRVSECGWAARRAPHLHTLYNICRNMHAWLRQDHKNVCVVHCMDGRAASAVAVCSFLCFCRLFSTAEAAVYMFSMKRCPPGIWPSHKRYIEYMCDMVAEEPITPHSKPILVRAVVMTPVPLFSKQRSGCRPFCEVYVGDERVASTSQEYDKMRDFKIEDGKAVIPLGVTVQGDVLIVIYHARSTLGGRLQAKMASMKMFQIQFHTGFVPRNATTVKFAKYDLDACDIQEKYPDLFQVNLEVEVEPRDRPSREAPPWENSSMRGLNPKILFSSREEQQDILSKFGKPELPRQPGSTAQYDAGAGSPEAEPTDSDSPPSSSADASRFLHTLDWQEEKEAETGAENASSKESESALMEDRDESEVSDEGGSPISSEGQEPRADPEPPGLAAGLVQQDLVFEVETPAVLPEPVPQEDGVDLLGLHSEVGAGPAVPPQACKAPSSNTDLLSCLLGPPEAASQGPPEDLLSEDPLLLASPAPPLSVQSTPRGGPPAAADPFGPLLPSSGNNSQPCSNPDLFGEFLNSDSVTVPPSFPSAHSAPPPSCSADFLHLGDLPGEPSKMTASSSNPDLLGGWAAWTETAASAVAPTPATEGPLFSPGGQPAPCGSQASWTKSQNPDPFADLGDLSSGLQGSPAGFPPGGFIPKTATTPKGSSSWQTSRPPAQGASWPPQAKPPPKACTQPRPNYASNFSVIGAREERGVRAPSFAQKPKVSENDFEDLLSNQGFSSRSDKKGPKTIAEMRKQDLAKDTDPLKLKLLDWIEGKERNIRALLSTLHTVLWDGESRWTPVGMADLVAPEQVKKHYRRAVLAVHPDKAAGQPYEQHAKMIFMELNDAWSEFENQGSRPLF

The target of experiment [5] is NADH dehydrogenase [ubiquinone] 1 alpha subcomplex subunit 13 (Homo sapiens, UniProt Q9P0J0).
NADH dehydrogenase [ubiquinone] 1 alpha subcomplex subunit 13, sequence (Q9P0J0 whole entry, one chain of several): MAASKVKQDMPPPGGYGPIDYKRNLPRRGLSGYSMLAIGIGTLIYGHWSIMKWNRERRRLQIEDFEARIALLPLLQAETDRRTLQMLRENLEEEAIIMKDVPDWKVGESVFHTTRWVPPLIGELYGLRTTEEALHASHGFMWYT
Experiment [6] deals with Serine/threonine-protein kinase MRCK beta (Homo sapiens, UniProt Q9Y5S2).
Experiment [7] deals with Serine/threonine-protein kinase 26 (Homo sapiens, UniProt Q9P289).
Serine/threonine-protein kinase 26, sequence (Q9P289 whole entry): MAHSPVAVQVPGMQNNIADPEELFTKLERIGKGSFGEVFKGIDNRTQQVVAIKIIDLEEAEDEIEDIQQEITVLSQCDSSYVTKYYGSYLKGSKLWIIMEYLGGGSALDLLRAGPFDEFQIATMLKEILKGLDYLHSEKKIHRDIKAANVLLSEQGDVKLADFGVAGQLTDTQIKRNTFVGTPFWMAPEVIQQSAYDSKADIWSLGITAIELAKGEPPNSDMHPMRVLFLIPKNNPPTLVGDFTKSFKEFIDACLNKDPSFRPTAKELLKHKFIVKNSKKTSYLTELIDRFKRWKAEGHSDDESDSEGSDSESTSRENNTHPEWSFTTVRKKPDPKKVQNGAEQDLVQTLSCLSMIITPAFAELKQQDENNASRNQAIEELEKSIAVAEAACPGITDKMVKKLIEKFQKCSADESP
For experiment [8], the target named is RAC-alpha serine/threonine-protein kinase (Homo sapiens, UniProt P31749).
RAC-alpha serine/threonine-protein kinase, sequence (P31749 whole entry): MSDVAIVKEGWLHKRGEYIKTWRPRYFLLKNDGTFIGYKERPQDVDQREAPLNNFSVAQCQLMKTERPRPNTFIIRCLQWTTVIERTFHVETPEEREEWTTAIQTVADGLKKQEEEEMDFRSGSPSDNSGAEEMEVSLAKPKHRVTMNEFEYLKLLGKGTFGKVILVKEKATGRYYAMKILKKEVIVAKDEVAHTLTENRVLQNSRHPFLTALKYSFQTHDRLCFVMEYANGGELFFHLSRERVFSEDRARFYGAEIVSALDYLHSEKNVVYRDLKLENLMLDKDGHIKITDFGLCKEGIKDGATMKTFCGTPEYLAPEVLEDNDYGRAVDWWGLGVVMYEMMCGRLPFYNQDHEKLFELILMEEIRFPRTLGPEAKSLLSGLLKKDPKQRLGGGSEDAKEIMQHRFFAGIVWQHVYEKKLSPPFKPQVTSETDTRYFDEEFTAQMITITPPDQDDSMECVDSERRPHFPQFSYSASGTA
Experiment [9] has as its target Putative heat shock protein HSP 90-beta 2 (Homo sapiens, UniProt Q58FF8).
The target of experiment [10] is T2, Dynamin-like GTPase OPA1, mitochondrial (Homo sapiens, UniProt O60313).
T2 sequence (O60313 whole entry): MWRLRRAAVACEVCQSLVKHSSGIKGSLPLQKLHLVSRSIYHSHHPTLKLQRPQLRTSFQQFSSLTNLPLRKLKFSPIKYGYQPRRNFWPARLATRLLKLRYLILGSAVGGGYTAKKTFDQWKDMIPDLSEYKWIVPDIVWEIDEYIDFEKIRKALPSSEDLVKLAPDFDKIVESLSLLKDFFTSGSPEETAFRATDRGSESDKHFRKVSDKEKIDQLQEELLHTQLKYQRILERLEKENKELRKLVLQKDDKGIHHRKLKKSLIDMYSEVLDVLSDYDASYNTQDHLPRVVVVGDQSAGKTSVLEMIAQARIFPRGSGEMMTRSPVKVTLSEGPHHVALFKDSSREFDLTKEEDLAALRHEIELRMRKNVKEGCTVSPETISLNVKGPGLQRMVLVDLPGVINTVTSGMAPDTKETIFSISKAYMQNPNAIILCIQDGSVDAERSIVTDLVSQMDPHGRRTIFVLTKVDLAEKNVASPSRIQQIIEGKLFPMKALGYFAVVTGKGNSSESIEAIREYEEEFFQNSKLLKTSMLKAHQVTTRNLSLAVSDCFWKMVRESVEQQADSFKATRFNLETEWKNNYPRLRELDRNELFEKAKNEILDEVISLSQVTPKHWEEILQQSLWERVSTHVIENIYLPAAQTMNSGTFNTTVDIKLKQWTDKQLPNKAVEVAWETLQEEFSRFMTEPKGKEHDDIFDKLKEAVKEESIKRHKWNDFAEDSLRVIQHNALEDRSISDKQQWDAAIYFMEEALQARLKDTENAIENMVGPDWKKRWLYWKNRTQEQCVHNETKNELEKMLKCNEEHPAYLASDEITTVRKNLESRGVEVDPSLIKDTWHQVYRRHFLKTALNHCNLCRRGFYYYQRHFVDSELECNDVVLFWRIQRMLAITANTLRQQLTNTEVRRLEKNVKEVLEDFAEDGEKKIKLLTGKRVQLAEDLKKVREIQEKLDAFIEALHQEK

The target in experiment [11] is Tyrosine-protein kinase JAK1 (Homo sapiens, UniProt P23458).
Tyrosine-protein kinase JAK1, sequence (P23458 whole entry): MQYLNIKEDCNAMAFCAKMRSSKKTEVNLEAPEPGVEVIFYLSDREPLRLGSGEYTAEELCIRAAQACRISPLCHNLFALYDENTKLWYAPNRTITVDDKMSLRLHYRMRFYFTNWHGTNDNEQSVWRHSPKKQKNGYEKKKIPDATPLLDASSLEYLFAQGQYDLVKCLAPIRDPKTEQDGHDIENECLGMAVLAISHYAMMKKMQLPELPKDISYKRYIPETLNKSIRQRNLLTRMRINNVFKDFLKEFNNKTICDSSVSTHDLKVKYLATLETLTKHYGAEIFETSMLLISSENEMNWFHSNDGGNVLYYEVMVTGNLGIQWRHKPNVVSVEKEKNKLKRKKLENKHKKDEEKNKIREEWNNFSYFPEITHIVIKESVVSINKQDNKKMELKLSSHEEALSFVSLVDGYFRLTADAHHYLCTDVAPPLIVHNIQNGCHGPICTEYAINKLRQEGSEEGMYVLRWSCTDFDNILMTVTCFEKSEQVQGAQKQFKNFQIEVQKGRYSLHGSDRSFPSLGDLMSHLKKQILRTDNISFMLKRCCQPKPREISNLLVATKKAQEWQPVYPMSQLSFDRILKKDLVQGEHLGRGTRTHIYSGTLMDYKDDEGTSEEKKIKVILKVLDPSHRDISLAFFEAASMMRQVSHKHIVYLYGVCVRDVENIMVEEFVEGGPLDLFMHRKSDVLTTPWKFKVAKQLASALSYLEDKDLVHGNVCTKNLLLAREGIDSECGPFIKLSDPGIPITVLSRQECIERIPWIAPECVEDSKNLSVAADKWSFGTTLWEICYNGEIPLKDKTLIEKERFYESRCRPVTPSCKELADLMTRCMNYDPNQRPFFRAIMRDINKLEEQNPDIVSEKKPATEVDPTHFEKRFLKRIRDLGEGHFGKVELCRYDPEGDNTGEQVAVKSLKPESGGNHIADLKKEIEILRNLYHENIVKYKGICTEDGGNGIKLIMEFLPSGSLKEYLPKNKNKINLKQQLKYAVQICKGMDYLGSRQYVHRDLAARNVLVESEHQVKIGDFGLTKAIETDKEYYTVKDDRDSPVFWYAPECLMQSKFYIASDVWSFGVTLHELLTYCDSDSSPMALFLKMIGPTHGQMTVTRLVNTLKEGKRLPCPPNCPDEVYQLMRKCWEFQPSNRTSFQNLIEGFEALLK
For experiment [12], the target named is Receptor-interacting serine/threonine-protein kinase 3 (Homo sapiens, UniProt Q9Y572).
Also: in the data inactive means no Kd found up to 30 µM.

Mitotic checkpoint serine/threonine-protein kinase BUB1, sequence (O43683 whole entry): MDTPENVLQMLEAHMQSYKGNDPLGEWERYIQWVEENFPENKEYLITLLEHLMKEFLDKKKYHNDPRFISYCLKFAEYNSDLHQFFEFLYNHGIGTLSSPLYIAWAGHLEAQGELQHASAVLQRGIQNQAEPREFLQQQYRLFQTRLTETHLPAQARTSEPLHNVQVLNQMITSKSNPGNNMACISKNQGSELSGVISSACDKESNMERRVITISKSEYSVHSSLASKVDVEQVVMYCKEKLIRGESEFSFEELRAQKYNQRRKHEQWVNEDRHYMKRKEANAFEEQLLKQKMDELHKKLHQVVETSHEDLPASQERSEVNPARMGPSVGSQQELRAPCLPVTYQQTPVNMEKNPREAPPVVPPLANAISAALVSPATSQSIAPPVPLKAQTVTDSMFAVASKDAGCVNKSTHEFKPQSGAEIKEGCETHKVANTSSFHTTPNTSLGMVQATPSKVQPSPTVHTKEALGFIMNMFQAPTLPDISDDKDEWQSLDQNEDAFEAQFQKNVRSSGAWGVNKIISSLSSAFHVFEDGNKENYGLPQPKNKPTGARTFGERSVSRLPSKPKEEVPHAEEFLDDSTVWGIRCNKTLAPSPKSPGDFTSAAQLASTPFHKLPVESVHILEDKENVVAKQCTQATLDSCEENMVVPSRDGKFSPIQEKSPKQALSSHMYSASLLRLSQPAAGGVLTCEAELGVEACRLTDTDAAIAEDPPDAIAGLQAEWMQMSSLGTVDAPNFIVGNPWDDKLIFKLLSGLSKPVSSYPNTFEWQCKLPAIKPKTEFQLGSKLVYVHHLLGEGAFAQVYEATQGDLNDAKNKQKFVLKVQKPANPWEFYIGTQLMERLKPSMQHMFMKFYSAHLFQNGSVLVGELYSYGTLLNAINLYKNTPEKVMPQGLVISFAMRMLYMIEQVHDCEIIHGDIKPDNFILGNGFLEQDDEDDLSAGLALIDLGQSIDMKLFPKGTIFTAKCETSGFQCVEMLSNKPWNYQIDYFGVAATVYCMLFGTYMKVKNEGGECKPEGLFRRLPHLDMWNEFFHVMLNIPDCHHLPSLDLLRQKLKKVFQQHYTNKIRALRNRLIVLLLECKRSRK
Aurora kinase B, sequence (Q96GD4 whole entry): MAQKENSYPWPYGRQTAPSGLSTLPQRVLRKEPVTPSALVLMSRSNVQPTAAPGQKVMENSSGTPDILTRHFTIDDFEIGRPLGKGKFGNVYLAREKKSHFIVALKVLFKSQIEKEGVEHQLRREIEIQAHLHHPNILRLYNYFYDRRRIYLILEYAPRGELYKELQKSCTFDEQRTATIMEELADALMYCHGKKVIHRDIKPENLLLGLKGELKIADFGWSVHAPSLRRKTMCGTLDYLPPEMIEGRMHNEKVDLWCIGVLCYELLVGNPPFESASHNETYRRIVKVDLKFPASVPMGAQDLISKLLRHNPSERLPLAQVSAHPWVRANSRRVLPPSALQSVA
Ephrin type-A receptor 7, sequence (Q15375 whole entry): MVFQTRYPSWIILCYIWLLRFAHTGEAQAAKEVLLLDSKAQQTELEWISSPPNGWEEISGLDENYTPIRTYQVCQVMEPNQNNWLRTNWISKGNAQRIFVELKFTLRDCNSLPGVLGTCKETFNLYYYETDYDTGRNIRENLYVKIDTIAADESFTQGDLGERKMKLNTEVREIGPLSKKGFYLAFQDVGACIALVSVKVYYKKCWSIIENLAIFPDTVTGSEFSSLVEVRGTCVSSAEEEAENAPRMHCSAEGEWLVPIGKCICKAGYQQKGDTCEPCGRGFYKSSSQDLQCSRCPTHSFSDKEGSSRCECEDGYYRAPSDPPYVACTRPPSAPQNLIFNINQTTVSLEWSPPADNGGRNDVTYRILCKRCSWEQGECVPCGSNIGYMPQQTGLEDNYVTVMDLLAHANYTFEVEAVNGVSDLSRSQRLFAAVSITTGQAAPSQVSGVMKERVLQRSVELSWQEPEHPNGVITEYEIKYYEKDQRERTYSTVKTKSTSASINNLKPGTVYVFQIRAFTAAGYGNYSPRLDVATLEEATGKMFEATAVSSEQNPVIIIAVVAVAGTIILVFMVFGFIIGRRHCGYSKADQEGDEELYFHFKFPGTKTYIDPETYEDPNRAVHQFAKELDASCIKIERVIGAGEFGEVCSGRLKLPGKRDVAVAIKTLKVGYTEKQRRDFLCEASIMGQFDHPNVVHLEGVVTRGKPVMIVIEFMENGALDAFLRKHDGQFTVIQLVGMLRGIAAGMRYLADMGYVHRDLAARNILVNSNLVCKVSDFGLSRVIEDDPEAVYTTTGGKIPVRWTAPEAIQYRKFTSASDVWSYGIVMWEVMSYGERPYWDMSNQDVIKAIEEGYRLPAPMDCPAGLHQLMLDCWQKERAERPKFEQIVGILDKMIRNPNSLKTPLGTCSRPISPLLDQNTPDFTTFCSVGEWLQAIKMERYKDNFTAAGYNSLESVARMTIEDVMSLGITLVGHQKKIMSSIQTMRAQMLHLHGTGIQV
Deoxycytidine kinase, sequence (P27707 whole entry): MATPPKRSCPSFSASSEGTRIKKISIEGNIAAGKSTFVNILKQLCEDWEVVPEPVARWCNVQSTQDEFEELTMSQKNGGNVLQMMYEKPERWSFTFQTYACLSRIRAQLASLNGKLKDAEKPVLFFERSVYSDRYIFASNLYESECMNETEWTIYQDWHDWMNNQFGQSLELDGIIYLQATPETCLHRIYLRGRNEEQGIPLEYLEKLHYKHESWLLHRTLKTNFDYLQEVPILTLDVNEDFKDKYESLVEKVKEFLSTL

Consider `Cc1cc(Nc2nc(N[C@@H](C)c3ncc(F)cn3)ncc2Cl)n[nH]1` [AZD-1480], for which the dissociation constant (Kd) is 1.88 µM (active) in experiment [1]; > 30 µM (inactive) in experiment [2]; > 30 µM (inactive) in experiment [3]; > 30 µM (inactive) at Ephrin type-A receptor 7; > 30 µM (inactive) in experiment [4]; 1.56 µM (active) on Aurora kinase B. Also, the Kd (on Deoxycytidine kinase; in [5]; in experiment [6]; in [7]; in experiment [8]; in experiment [9]) was > 30 µM (inactive) throughout. In addition, the Kd in [10], in experiment [11] and in experiment [12] was > 30 µM (inactive) throughout.

As for `Cc1ccc(C(=O)Nc2ccc(Oc3cc4cnn(C)c4cc3-c3cn[nH]c3)c(F)c2)c(=O)n1-c1ccc(F)cc1` [MERESTINIB], the Kd (in experiment [1]; in experiment [2]; in [3]; at Ephrin type-A receptor 7; in [4]; at Aurora kinase B) was > 30 µM (inactive) each time. In addition, the Kd (at Deoxycytidine kinase; in experiment [5]; in [6]; in [7]; in [8]; in experiment [9]) was > 30 µM (inactive) throughout. Moreover, the Kd in experiment [10], in experiment [11] and in [12] was > 30 µM (inactive) in each case.

As for `CNC(=O)c1cc(COc2nnc(Nc3ccc(Cl)cc3)c3ccoc23)ccn1` [TELATINIB], the Kd (in experiment [1]; in experiment [2]; in experiment [3]; at Ephrin type-A receptor 7; in experiment [4]; at Aurora kinase B) was > 30 µM (inactive) throughout. For the same molecule, the Kd (at Deoxycytidine kinase; in experiment [5]; in experiment [6]; in [7]; in [8]; in [9]) was > 30 µM (inactive) throughout. Moreover, the Kd in experiment [10], in experiment [11] and in experiment [12] was > 30 µM (inactive) each time.

On to `CNC(=O)c1cccc(-c2ccc3c(N4CCOC[C@@H]4C)nc(N4CCOC[C@@H]4C)nc3n2)c1` [VISTUSERTIB], for which the Kd (in experiment [1]; in experiment [2]; in experiment [3]; on Ephrin type-A receptor 7; in experiment [4]; on Aurora kinase B) was > 30 µM (inactive) in each case. In addition, the Kd (at Deoxycytidine kinase; in experiment [5]; in [6]; in experiment [7]; in [8]; in [9]) was > 30 µM (inactive) each time. The Kd in experiment [10], in experiment [11] and in experiment [12] was > 30 µM (inactive) each time.

Take `CC1(COc2ccc3c(c2)ncn3-c2ccc3cccc(N4CCC(N)CC4)c3n2)COC1` [CRENOLANIB]: the Kd is > 30 µM (inactive) in experiment [1]; > 30 µM (inactive) in [2]; > 30 µM (inactive) in experiment [3]; > 30 µM (inactive) at Ephrin type-A receptor 7; 2.41 µM (active) in [4]; > 30 µM (inactive) at Aurora kinase B. In addition, the Kd was > 30 µM (inactive) at Deoxycytidine kinase; > 30 µM (inactive) in [5]; > 30 µM (inactive) in experiment [6]; 0.013 µM (active) in experiment [7]; > 30 µM (inactive) in [8]; 2.57 µM (active) in experiment [9]. The Kd in [10], in [11] and in experiment [12] was > 30 µM (inactive) throughout.

Regarding `COc1ccc2c(OCc3nnc4ccc(-c5ccccc5)nn34)ccnc2c1` [AMG-208], the Kd (in experiment [1]; in [2]; in experiment [3]; on Ephrin type-A receptor 7; in experiment [4]; at Aurora kinase B) was > 30 µM (inactive) in each case. Moreover, the Kd (on Deoxycytidine kinase; in experiment [5]; in [6]; in [7]; in [8]; in [9]) was > 30 µM (inactive) throughout. For the same molecule, the Kd in [10], in [11] and in [12] was > 30 µM (inactive) in each case.
